US4820695A, “C-20-dihydro-deoxy-(cyclic amino)-derivatives of macrolide antibiotics” (priority 1987, dated 1989)
In brackets after ≈: the same amount, converted by molar mass. Where two headings read alike, the source gives them in different places.

Assays:
Pasteurella multocida = test: Pasteurella infection in one-day-old chicks, subcutaneous administration (Table XII); type: in vivo; conditions: Administered subcutaneously, 30 mg/kg × 2, 1 and 4 hours post-challenge
Description: Many of the C-20 modified derivatives of this invention have also shown in vivo antibacterial activity against infections induced by gram-negative bacteria. Tables XII and XIII summarize the results of tests in which illustrative compounds were evaluated against a Pasteurella infection in one-day-old chicks. The compounds were administered parenterally or orally after challenge of the chicks with Pasteurella multocida (0.1 ml of a 10^-4 dilution of a twenty-hour tryptose broth culture of an avian P. multocida given subcutaneously). In these tests, unless indicated otherwise, all non-medicated infected chicks died within 24 hours of Pasteurella challenge. In the tests summarized in Table XII, the compounds were administered by subcutaneous injection at a dosage of 30 mg/kg, 1 and 4 hours post-challenge of the chicks with P. multocida. In the tests summarized in Table XIII the compounds were administered in medicated drinking water (at a level of 2 g/gal) available from 4 to 20 hours prior to challenge of the chicks with P. multocida and during the 3 -day test period.
^a Administered subcutaneously; 30 mg/kg × 2

[1] = tested on: Streptococcus pyogenes C203; test: ED50 in mice experimentally infected with S. pyogenes C203 (Table XI); type: in vivo; conditions: Streptococcus pyogenes, doses given 1 and 4 hours postinfection, read-out: ED50
Description: The C-20 modified derivatives of this invention have shown in vivo antimicrobial activity against experimentally-induced infections in laboratory animals. When two doses of test compound were administered to mice experimentally infected with S. pyogenes C203, the activity observed was measured as an ED50 value [effective dose in mg/kg to protect 50% of the test animals: see Warren Wick, et al., J. Bacteriol. 81, 233-235 (1961)].
^a mg/kg × 2; doses given 1 and 4 hours postinfection

Klebsiella X26 = test: MIC, standard agar-dilution assay (Table IX); type: cell-based
[2] = tested on: Staphylococcus aureus X400; test: MIC, standard agar-dilution assay (Table IX); type: cell-based; conditions: Staphylococcus aureus X400, Methicillin-resistant strain
Escherichia coli TEM = test: MIC, standard agar-dilution assay (Table IX); type: cell-based
Escherichia coli EC14 = test: MIC, standard agar-dilution assay (Table IX); type: cell-based
[3] = Titratable groups in 66% aqueous DMF (Tables XIV-XVI); type: physicochemical
Description: ^c Run in 66% aqueous DMF
^d Run in 66% aqueous DMF

[4] = tested on: Staphylococcus epidermidis EPI1; test: MIC, standard agar-dilution assay (Table IX); type: cell-based; conditions: Staphylococcus epidermidis EPI1, agar-dilution
[5] = tested on: Staphylococcus epidermidis 222; test: MIC, standard agar-dilution assay (Table IX); type: cell-based
[6] = tested on: Staphylococcus aureus V41; test: MIC, standard agar-dilution assay (Table IX); type: cell-based; conditions: Staphylococcus aureus V41, Penicillin-resistant strain
[7] = tested on: Streptococcus Group D X66; test: MIC, standard agar-dilution assay (Table IX); type: cell-based
[8] = tested on: Staphylococcus aureus S13E; test: MIC, standard agar-dilution assay (Table IX); type: cell-based
Staphyloccus aureus X1.1 = test: MIC, standard agar-dilution assay (Table IX); type: cell-based, Staphylococcus aureus
[9] = tested on: Haemophilus influenzae 76; test: MIC, standard agar-dilution assay (Table IX); type: cell-based; conditions: Haemophilus influenzae 76, Ampicillin-resistant strain
[10] = tested on: Streptococcus pneumoniae Park I; test: MIC, standard agar-dilution assay (Table IX); type: cell-based; conditions: Streptococcus pneumoniae Park I, agar-dilution
Escherichia coli N10 = test: MIC, standard agar-dilution assay (Table IX); type: cell-based
[11] = tested on: Pasteurella multocida 60A; test: MIC, broth-dilution microtiter test (Table X); type: cell-based; conditions: Avian isolate
Description: (§1) The MIC's in Table X were obtained using conventional broth-dilution microtiter tests.

[12] = tested on: Pasteurella multocida 17E; test: MIC, broth-dilution microtiter test (Table X); type: cell-based; conditions: Bovine isolate
Description: as §1

[13] = tested on: Pasteurella hemolytica 22C; test: MIC, broth-dilution microtiter test (Table X); type: cell-based
Description: as §1

Staphylococcus aureus = test: MIC, broth-dilution microtiter test (Table X); type: cell-based
Description: as §1

[14] = tested on: Mycoplasma gallisepticum 29C; test: MIC, broth-dilution microtiter test (Table X); type: cell-based
Description: as §1

[15] = tested on: Mycoplasma hyopneumoniae S5972; test: MIC, broth-dilution microtiter test (Table X); type: cell-based
Description: as §1

Streptococcus sp. 19F = test: MIC, broth-dilution microtiter test (Table X); type: cell-based
Description: as §1

Mycoplasma synoviae 40A = test: MIC, broth-dilution microtiter test (Table X); type: cell-based
Description: as §1

Mycoplasma hyorhinis 29E = test: MIC, broth-dilution microtiter test (Table X); type: cell-based
Description: as §1

[16] = tested on: Haemophilus influenzae C.L.; test: MIC, standard agar-dilution assay (Table IX); type: cell-based; conditions: Ampicillin-sensitive strain
[17] = tested on: Streptococcus Group D 2041; test: MIC, standard agar-dilution assay (Table IX); type: cell-based
[18] = tested on: Streptococcus pyogenes C203; test: MIC, standard agar-dilution assay (Table IX); type: cell-based
[19] = Staphylococcus aureus, read-out: MIC
[20] = Mycoplasmoides gallisepticum, read-out: MIC
[21] = Mesomycoplasma hyopneumoniae, read-out: MIC
[22] = Mycoplasmopsis synoviae, read-out: MIC

CCC1OC(=O)CC(O)C(C)C(OC2OC(C)C(O)C(N(C)C)C2O)C(CCN2CCCCCCCCCCCC2)CC(C)C(=O)C=CC(C)=CC1COC1OC(C)C(O)C(OC)C1OC (stereo not shown) [Compound D10, 20-DH-DO-20-(azacyclotridecan-1-yl)desmycosin]
Number of Deaths/Number Treated (Pasteurella multocida): 10/10 | ED50 ([1]; C203, Oral): 68 mg/kg | ED50 ([1]; C203, sc, Subcutaneous): < 10 mg/kg | MIC (Klebsiella X26; read-out: MIC): 16 mg/L (≈ 17 µM) | MIC ([2]; read-out: MIC): 0.25 mg/L (≈ 0.266 µM) | MIC (Escherichia coli TEM; read-out: MIC): 8 mg/L (≈ 8.52 µM) | MIC (Escherichia coli EC14; read-out: MIC): 64 mg/L (≈ 68.1 µM) | pKa ([3]; Titratable groups): 9.5 | pKa ([3]; Titratable groups (first value)): 8 | MIC ([4]; read-out: MIC): 0.25 mg/L (≈ 0.266 µM) | MIC ([5]; read-out: MIC): 0.12 mg/L (≈ 0.128 µM) | MIC ([6]; read-out: MIC): 0.25 mg/L (≈ 0.266 µM) | MIC ([7]; read-out: MIC): 4 mg/L (≈ 4.26 µM) | MIC ([8]; Staphylococcus aureus, S13E): 0.25 mg/L (≈ 0.266 µM) | MIC (Staphyloccus aureus X1.1; [19]): 0.25 mg/L (≈ 0.266 µM) | MIC ([9]; read-out: MIC): 8 mg/L (≈ 8.52 µM) | MIC ([10]; read-out: MIC): 0.25 mg/L (≈ 0.266 µM) | MIC (Escherichia coli N10; read-out: MIC): 32 mg/L (≈ 34.1 µM) | MIC ([11]; read-out: MIC): 3.12 mg/L (≈ 3.32 µM) | MIC ([12]; read-out: MIC): 1.56 mg/L (≈ 1.66 µM) | MIC ([13]; read-out: MIC): 1.56 mg/L (≈ 1.66 µM) | MIC (Staphylococcus aureus; read-out: MIC): 0.39 mg/L (≈ 0.415 µM) | MIC [14, 20]: 0.097 mg/L (≈ 0.103 µM) | MIC [15, 21]: 0.78 mg/L (≈ 0.83 µM) | MIC (Streptococcus sp. 19F; read-out: MIC): 0.78 mg/L (≈ 0.83 µM) | MIC (Mycoplasma synoviae 40A; [22]): ≤ 0.048 mg/L | MIC (Mycoplasma hyorhinis 29E; read-out: MIC): 12.5 mg/L (≈ 13.3 µM) | MIC ([16]; read-out: MIC): 4 mg/L (≈ 4.26 µM) | MIC ([17]; GROUPD2041, read-out: MIC): 4 mg/L (≈ 4.26 µM)

CCC1OC(=O)CC(O)C(C)C(OC2OC(C)C(O)C(N(C)C)C2O)C(CCN2CC=C(c3ccccc3)CC2)CC(C)C(=O)C=CC(C)=CC1COC1OC(C)C(O)C(OC)C1OC (stereo not shown) [Compound D26, 20-DH-DO-20-(4-phenyl-1,2,3,6-tetrahydropyridin-1-yl)desmycosin]
Number of Deaths/Number Treated (Pasteurella multocida): 10/10 | ED50 ([1]; C203, Oral): 12.5 mg/kg | ED50 ([1]; C203, sc, Subcutaneous): 5.61 mg/kg | MIC (Klebsiella X26; read-out: MIC): 64 mg/L (≈ 69.9 µM) | MIC ([2]; read-out: MIC): 0.5 mg/L (≈ 0.546 µM) | MIC (Escherichia coli TEM; read-out: MIC): 32 mg/L (≈ 35 µM) | MIC (Escherichia coli EC14; read-out: MIC): 128 mg/L (≈ 140 µM) | MIC ([4]; read-out: MIC): 0.5 mg/L (≈ 0.546 µM) | MIC ([5]; read-out: MIC): 0.25 mg/L (≈ 0.273 µM) | MIC ([6]; read-out: MIC): 0.5 mg/L (≈ 0.546 µM) | MIC ([18]; read-out: MIC): 0.25 mg/L (≈ 0.273 µM) | MIC ([7]; read-out: MIC): 1 mg/L (≈ 1.09 µM) | MIC ([8]; Staphylococcus aureus, S13E): 0.5 mg/L (≈ 0.546 µM) | MIC (Staphyloccus aureus X1.1; [19]): 0.5 mg/L (≈ 0.546 µM) | MIC ([9]; read-out: MIC): 8 mg/L (≈ 8.74 µM) | MIC ([10]; read-out: MIC): 0.25 mg/L (≈ 0.273 µM) | MIC (Escherichia coli N10; read-out: MIC): 128 mg/L (≈ 140 µM) | MIC ([11]; read-out: MIC): 12.5 mg/L (≈ 13.7 µM) | MIC ([12]; read-out: MIC): 6.25 mg/L (≈ 6.83 µM) | MIC ([13]; read-out: MIC): 12.5 mg/L (≈ 13.7 µM) | MIC (Staphylococcus aureus; read-out: MIC): 3.12 mg/L (≈ 3.41 µM) | MIC [14, 20]: ≤ 0.048 mg/L | MIC [15, 21]: 0.78 mg/L (≈ 0.852 µM) | MIC (Streptococcus sp. 19F; read-out: MIC): 0.78 mg/L (≈ 0.852 µM) | MIC (Mycoplasma synoviae 40A; [22]): 0.78 mg/L (≈ 0.852 µM) | MIC (Mycoplasma hyorhinis 29E; read-out: MIC): 25 mg/L (≈ 27.3 µM) | MIC ([16]; read-out: MIC): 32 mg/L (≈ 35 µM) | MIC ([17]; GROUPD2041, read-out: MIC): 2 mg/L (≈ 2.19 µM)

CCC1OC(=O)CC(O)C(C)C(OC2OC(C)C(O)C(N(C)C)C2O)C(CCN2CCC(C)CC(C)(C)C2)CC(C)C(=O)C=CC(C)=CC1COC1OC(C)C(O)C(OC)C1OC (single isomer, unassigned) [Compound D24, 20-DH-DO-20-(3,3,5-Trimethylhexahydroazepin-1-yl)desmycosin]
Number of Deaths/Number Treated (Pasteurella multocida): 2/10 | MIC (Klebsiella X26): 128 mg/L (≈ 143 µM) | MIC [2]: 1 mg/L (≈ 1.11 µM) | MIC (Escherichia coli TEM): 32 mg/L (≈ 35.7 µM) | MIC (Escherichia coli EC14): 64 mg/L (≈ 71.3 µM) | Titratable groups [3]: 9.4 | Titratable groups (first value) [3]: 7.9 | MIC [4]: 0.5 mg/L (≈ 0.557 µM) | MIC [5]: 0.25 mg/L (≈ 0.279 µM) | MIC [6]: 0.5 mg/L (≈ 0.557 µM) | MIC [18]: 0.25 mg/L (≈ 0.279 µM) | MIC [7]: 4 mg/L (≈ 4.46 µM) | MIC ([8]; Staphylococcus aureus S13E, agar-dilution): 0.5 mg/L (≈ 0.557 µM) | MIC (Staphyloccus aureus X1.1): 0.5 mg/L (≈ 0.557 µM) | MIC [9]: 8 mg/L (≈ 8.92 µM) | MIC [10]: 1 mg/L (≈ 1.11 µM) | MIC (Escherichia coli N10): 64 mg/L (≈ 71.3 µM) | MIC [11]: 6.25 mg/L (≈ 6.97 µM) | MIC [12]: 12.5 mg/L (≈ 13.9 µM) | MIC [13]: 6.25 mg/L (≈ 6.97 µM) | MIC (Staphylococcus aureus): 3.12 mg/L (≈ 3.48 µM) | MIC [14]: 0.39 mg/L (≈ 0.435 µM) | MIC [15]: 0.78 mg/L (≈ 0.869 µM) | MIC (Streptococcus sp. 19F): 3.12 mg/L (≈ 3.48 µM) | MIC (Mycoplasma synoviae 40A): 0.097 mg/L (≈ 0.108 µM) | MIC (Mycoplasma hyorhinis 29E): 25 mg/L (≈ 27.9 µM) | MIC [16]: 32 mg/L (≈ 35.7 µM) | MIC [17]: 8 mg/L (≈ 8.92 µM)
